From PubChem BioAssay (NCI)
Several values for one entry are separate records, joined by “and”; a condition that tells them apart may be missing. Identical values can stand only once.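 Interpolation was linear, between the two tested concentrations surrounding the appropriate level; five concentrations were tested over 48 hours in 96-well plates. GI50 marks 50% less growth. Definition used: TGI = concentration required for complete inhibition of growth.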

Tests used:
Experiment in all cases: NCI tumour cell line growth inhibition, 48 h
[1] = tested on: XF 498 CNS
[2] = tested on: SNB-78 CNS
[3] = tested on: DLD-1 colon
[4] = tested on: DMS 114 small cell lung
[5] = tested on: RXF-631 renal
[6] = tested on: M19-MEL melanoma
[7] = tested on: KM20L2 colon
[8] = tested on: HOP-18 NSCLC
[9] = tested on: MDA-N
[10] = tested on: P388 leukemia
[11] = tested on: P388/ADR leukemia

Row | SMILES | TGI [1] | TGI [2] | TGI [3] | TGI [4] | TGI [5] | TGI [6] | TGI [7] | TGI [8] | further results
1 | NNC(=O)CCC(=O)Nc1cc(Cl)c(Cl)cc1Cl | > 100 µM | > 100 µM | > 100 µM | > 100 µM | > 100 µM | > 100 µM | > 100 µM |  | 
2 | COc1ccc(C2=NN(C(=O)COc3ccc(Cl)cc3)C(O)(c3ccc(Cl)cc3)C2)cc1 (centres undefined) | > 100 µM | > 100 µM | > 100 µM |  | > 100 µM |  | > 100 µM |  | 
3 | COCC1N=C(c2cc(OC)c(OC)c(OC)c2-c2cc3c(cc2C2OCCCO2)OCO3)O[C@H]1c1ccccc1 (some centres undefined) |  |  | > 100 µM | > 100 µM |  | > 100 µM | > 100 µM |  | 
4 | CC1CC(c2cccc3c2OCO3)=Nc2ccccc2S1 (centres undefined) | > 100 µM | > 100 µM | > 100 µM | > 100 µM |  | > 100 µM | > 100 µM |  | 
5 | CC(/C(=N/NC(=O)C(N)=O)c1c(Cl)ccc(Cl)c1O)C1(O)C(=O)Nc2ccccc21 (centres undefined) |  | > 100 µM | > 100 µM | > 100 µM | > 100 µM | > 100 µM | > 100 µM | > 100 µM | 
6 | CS(=O)(=O)OCCn1cnc2nc(NC(=O)c3ccccc3)[nH]c(=O)c21 |  | > 100 µM | > 100 µM | > 100 µM | > 100 µM | > 100 µM | > 100 µM | > 100 µM | 
7 | CC1=C(C(=O)Nc2cccc(Cl)c2)C(c2ccc([N+](=O)[O-])cc2)C(C(=O)Nc2cccc(Cl)c2)=C(C)N1 |  | > 100 µM | > 100 µM | > 100 µM | 57.6 µM |  | 54.4 µM | 56.7 µM | 
8 | O=c1[nH]nc2ccccc2c1Cl | 28.1 µM | 41.1 µM | 22.8 µM | 18.9 µM | 28.4 µM | 20.1 µM | 29.5 µM | 29.1 µM | 
9 | CCOC(=O)C1=C(NNC(=O)Cc2ccccc2)CSC1=Nc1ccccc1 | > 100 µM | > 100 µM | > 100 µM |  | > 100 µM | > 100 µM | > 100 µM | > 100 µM | 
10 | NC1=C(Br)C(=O)c2ncccc2C1=O | 2.16 µM | 2.48 µM | 1.98 µM | 0.313 µM | 3.73 µM | 0.298 µM | 3.54 µM |  | 
11 | C=C1C(=O)OC2C1CC[C@H](C)C13OC(=O)CC1[C@@]23C (some centres undefined) |  | > 100 µM | > 100 µM | > 100 µM |  | > 100 µM |  |  | 
12 | CN(CC(=O)O)c1ccc(/C=C/c2ccnc3ccccc23)cc1 |  |  |  |  |  |  |  |  | TGI [9]: 53.9 µM
13 | COC1(O)C(=O)c2ccccc2OC1(OC)c1ccccc1 (centres undefined) |  |  |  |  |  |  |  |  | TGI [9]: > 100 µM
14 | O=c1c(Sc2c(O)c3ccccc3c3ccccc3c2=O)c(O)c2ccccc2c2ccccc12 |  |  | > 100 µM | 92.3 µM | > 100 µM | > 100 µM | > 100 µM | > 100 µM | 
15 | Nc1ncnc2c1ncn2CC(O)C(=O)O (centres undefined) |  |  | > 100 µM | > 100 µM |  | > 100 µM | > 100 µM | > 100 µM | TGI [9]: > 100 µM
16 | Fc1cccc2cc3ccc4cccc5ccc(c12)c3c45 | > 100 µM |  | > 100 µM | > 100 µM | > 100 µM | > 100 µM | > 100 µM | 12.8 µM | 
17 | CC(=O)Nc1ccc(/C=N\N2C(=O)c3ccccc3C2=O)cc1 | > 100 µM | > 100 µM | > 100 µM | > 100 µM |  | > 100 µM | > 100 µM | > 100 µM | 
18 | CCc1ccccc1N1CCN(C(=O)c2cc(OC)c(OC)c(OC)c2)CC1 | 17.9 µM | > 100 µM | > 100 µM | 0.692 µM |  | > 100 µM | 0.307 µM | > 91.9 µM | TGI [10]: 0.367 µM; TGI [11]: 4.22 µM
19 | COC(C(=O)C(O)C(C)O)C1Cc2cc3cc(OC4CC(OC(C)=O)C(OC5CC(O)C(OC)C(C)O5)C(C)O4)cc(O)c3c(O)c2C(=O)C1OC1CC(OC2CC(OC3CC(C)(O)C(OC(=O)C(C)C)C(C)O3)C(O)C(C)O2)C(O)C(C)O1 (centres undefined) |  |  | 8.61 µM and > 27.3 µM | 0.084 µM and 0.017 µM and 0.0165 µM |  |  |  |  | TGI [10]: 0.237 µM and 0.0293 µM; GI50 [1]: 0.00637 µM and 0.00134 µM; TGI [11]: 75 µM and > 100 µM; GI50 [3]: 0.298 µM and 0.0325 µM; TGI [9]: 0.252 µM

Row | SMILES | TGI [1] | TGI [2] | TGI [3] | TGI [4] | TGI [5] | TGI [6] | TGI [7] | TGI [8] | further results
20 | CN(C)CCNC(=O)c1ccc(C(=O)NCCN(C)C)c2nc3ccccc3cc12 |  | 12.7 µM | 5.28 µM | 2.16 µM | 14.8 µM | 2.35 µM | 10.3 µM | 25.4 µM | 
21 | CCCCCCCCC(=O)N(C)C1C2CN3CCC(O2)C13 (centres undefined) |  | > 100 µM | > 100 µM | > 100 µM |  | > 100 µM | > 100 µM | > 100 µM | 
22 | [C-]#[O+].[C-]#[O+].[C-]#[O+].[C-]#[O+].[Ir].[Ir].[O-]c1ccc2ccccc2c1C=Nc1ccc(N=Cc2c([O-])ccc3ccccc23)cc1 | > 100 µM | > 100 µM | > 100 µM | > 100 µM | > 100 µM | > 100 µM | > 100 µM | > 100 µM | GI50 [8]: > 100 µM; GI50 [1]: > 100 µM; GI50 [2]: > 100 µM; GI50 [3]: > 100 µM; GI50 [4]: > 100 µM; GI50 [5]: > 100 µM; GI50 [6]: > 100 µM; GI50 [7]: 59.2 µM
23 | C/C([O-])=C1\Cc2ccccc2C1=O.C/C([O-])=C1\Cc2ccccc2C1=O.CC[O-].CC[O-].[Ti+4] |  | > 100 µM | > 100 µM | 37.4 µM | 29.1 µM | 34.8 µM | > 100 µM | 80 µM | GI50 [8]: 32.5 µM; GI50 [2]: 24 µM; GI50 [3]: 18.7 µM; GI50 [4]: 18.7 µM; GI50 [5]: 6.96 µM; GI50 [6]: 16.8 µM; GI50 [7]: 29.2 µM; GI50 [9]: 17.1 µM; TGI [9]: 42.3 µM
24 | Cc1ccc(S(=O)(=O)NNC(=O)c2sc(-c3nc(C)c(C(=O)NNS(=O)(=O)c4ccc(C)cc4)s3)nc2C)cc1 |  | > 100 µM | > 100 µM |  |  | > 100 µM | > 100 µM |  | 
25 | CC1CC2C(=O)N(c3ccccc3)C(=O)C2c2c1c1ccccc1n2Cc1ccccc1 (centres undefined) |  |  | > 100 µM | > 100 µM |  | > 100 µM |  |  | 
26 | N#C/C(=C1\NN=C(N)C(c2ccc(Cl)cc2)=C1O)c1ccc(Cl)cc1 | > 100 µM | > 100 µM | > 100 µM | > 100 µM |  | > 100 µM | > 100 µM | > 100 µM | 
27 | O=C(O)CCSCCCN1C(=O)c2ccccc2C1=O |  | > 100 µM |  | > 100 µM |  | > 100 µM | > 100 µM |  | 
28 | O=C1OC(CC(=O)c2ccc(Cl)cc2Cl)C(Cl)=C1Cl (centres undefined) | 45.6 µM | > 71.3 µM | 54.5 µM | > 53.1 µM | > 75.5 µM | 48.8 µM | 42 µM | > 100 µM | 
29 | Cc1cccc(NC(=O)c2cc3cc(N=Nc4ccccc4Cl)ccc3oc2=O)c1 | 64.5 µM | > 100 µM | > 100 µM | 66.8 µM | > 100 µM | > 100 µM | > 100 µM | > 100 µM | 
30 | O=C(/C=C/c1ccc(Cl)c(Cl)c1)c1ccc(F)cc1 |  | 41.1 µM | 27.8 µM | 30 µM | > 100 µM | 32.5 µM | 35.2 µM | 50.2 µM | 
31 | Cc1cc(C)c2c(c1)Nc1ccccc1P2c1ccccc1 (centres undefined) | 33.3 µM | > 100 µM | 65.7 µM | > 100 µM |  |  | 74.7 µM |  | 
32 | Nc1c(Br)c(=O)[nH]c(=O)n1COCCO | > 100 µM | > 100 µM | > 100 µM | > 100 µM | > 100 µM | > 100 µM |  | > 100 µM | 
33 | Cc1nn(-c2ccccc2)c2c1CC(=O)Nc1ccccc1-2 |  |  |  |  |  |  |  |  | TGI [9]: 0.47 µM
34 | C=C1CC2(C[C@@H](c3ccccc3)O[C@@H](c3ccccc3)C2)OC1=O (some centres undefined) |  |  |  |  |  |  |  |  | TGI [9]: 5.76 µM
35 | O=c1c2cc(Br)ccc2nc(-c2ccccc2Cl)n1NCC1(O)OCC(O)C(O)C1O (centres undefined) |  | > 100 µM |  | > 100 µM |  | > 100 µM | > 100 µM |  | 
36 | C=C(C)C(=O)OC1CC2=CC(CC3(C)OC3C3OC(=O)C(=C)C13)OC2=O (centres undefined) |  | 33.3 µM | 5.17 µM | 30.3 µM | 35.8 µM | 19 µM | 30.5 µM | 34.1 µM | 
37 | Nc1ccn(CCO)c(=O)n1 |  | > 100 µM | > 100 µM | > 100 µM |  | > 100 µM | > 100 µM | > 100 µM | 
